Here are results for five molecules from US11103525B2, “Idoxuridine and its analogs as neuroprotectans for the treatment of parkinsonism” (priority 2017, dated 2021).

One data set relates to GPR37-tGFP. Briefly: GPR37-tGFP translocation assay. It is filed as cell-based, mouse. To be noted: for effect in GPR37-translocation assay (hit rating): tested at 2, 10 and 20 μM. Here is the method: FIG. 2. Schematic representation of the rationale and the basic steps of GPR37-translocation assay. A. GPR37 is prone to misfolding and aggregation, which, in metabolically-active cells, are followed by degradation and results in low levels of functional receptor in the plasma membrane. The primary targets of the screening assay are compounds that can directly or indirectly facilitate maturation and trafficking of GPR37 to the plasma membrane. B. N2a cells stably expressing GPR37-tGFP are seeded in poly-D-Lysine coated 384 well plates at density 5000 cells/well. 24 h later cells are treated with compounds, including positive and negative controls, and incubated for 72 h. Then cells are fixed with 4% PFA and additionally stained with Hoechst 33342 (nuclei) and HCS CellMask™ red (cell body) to enable segmentation of the plasma membrane. Acquisition of fluorescence images is done using ImageXpress high content screening system (Molecular Devices). Quantification of GPR37-tGFP levels in the plasma membrane is done using CellProfiler software. FIG. 3. Schematic representation of Image analysis pipeline and final outcome data. Segmentation of the plasma membrane is performed in five main steps: 1) identification of nuclei (primary objects) using nuclear stain, 2) determination of cell borders using primary objects as seeds and growing these objects in respect of tGFP and HCS CellMask™ fluorescence intensity (secondary objects), 3) shrinking and expending secondary objects, 4) subtraction of shrunken cells from expended cells which results in membrane segmentation (tertiary objects), 5) tGFP fluorescence intensity is calculated within tertiary objects. Z′ factor is a quality measure of an assay which describes how well separated positive and negative controls are. Assays having Z′ factors above 0.5 are considered good assays. N2a cells stably expressing GPR37-tGFP were seeded in 384 BDFalcon BioCoat Poly-D-Lysine coated plates at a density of 5000 cells/well, and 50 μL incubation volume of maintenance medium. Cells were incubated at 37° C., 5% CO2 using humidity chamber. 24 h later, the cells were treated with 10 μL of compounds of desired concentration, including positive (2 mM dibutyryl-cAMP+0.5 mM 4-phenylbutyrate) and negative controls (0.1% DMSO), and incubated for 72 h. Cells were fixed with 4% PFA by adding 20 μL of 16% PFA directly to cell medium, incubating for 20 min and washing with PBS-Tween20 (0.05%). Directly after fixation cells were stained for nuclei with Hoechst 33342 (0.01 mg/mL) and for cell bodies with HCS CellMask™ Red stain (Thermo Fisher Scientific Inc.) (0.001 mg/mL) by incubating with the dyes for 30 min in PBS-Tween20 (0.05%) followed by washing with PBS. All the additional steps, including cell seeding were performed using Multidrop Combi dispenser (Thermo Scientific) and washing steps were done by means of HydroSpeed™ plate washer (Tecan). The images were captured using ImageXpress Micro XLS Widefield High-Content Analysis System (Molecular Devices, LLC) in 3 fluorescent channels (ImageXpress filters are listed, followed by excitation/emission in nm): DAPI (387/447), FITC (482/536) and TexasRed (562/624). Binning 2 was applied during the acquisition and digital confocal option was used for FITC and TexasRed filters. Typically, 5 images were taken per well at magnification 20× and stored as 16 bit, gray scale tif files along with metadata in Oracle database, for further analysis. Quantification of GPR37-tGFP levels in the plasma membrane was done using CellProfiler™ software. CellProfiler™ is an open-source cell image analysis software available at www.cellprofiler.org. An image analysis pipeline used for membrane segmentation consisted of 5 main steps (FIG. 3): 1) segmentation of nuclei (primary objects); 2) segmentation of cell bodies (secondary objects); 3) shrinking and expending cell bodies; 4) subtraction of shrank cells from expanded cells (tertiary objects—membranes); 5) calculating tGFP fluorescence in the membranes. […]

The target in another data set is T1, hepatic aldehyde oxidase (Homo sapiens, UniProt Q06278).
T1 sequence (Q06278 1-1338): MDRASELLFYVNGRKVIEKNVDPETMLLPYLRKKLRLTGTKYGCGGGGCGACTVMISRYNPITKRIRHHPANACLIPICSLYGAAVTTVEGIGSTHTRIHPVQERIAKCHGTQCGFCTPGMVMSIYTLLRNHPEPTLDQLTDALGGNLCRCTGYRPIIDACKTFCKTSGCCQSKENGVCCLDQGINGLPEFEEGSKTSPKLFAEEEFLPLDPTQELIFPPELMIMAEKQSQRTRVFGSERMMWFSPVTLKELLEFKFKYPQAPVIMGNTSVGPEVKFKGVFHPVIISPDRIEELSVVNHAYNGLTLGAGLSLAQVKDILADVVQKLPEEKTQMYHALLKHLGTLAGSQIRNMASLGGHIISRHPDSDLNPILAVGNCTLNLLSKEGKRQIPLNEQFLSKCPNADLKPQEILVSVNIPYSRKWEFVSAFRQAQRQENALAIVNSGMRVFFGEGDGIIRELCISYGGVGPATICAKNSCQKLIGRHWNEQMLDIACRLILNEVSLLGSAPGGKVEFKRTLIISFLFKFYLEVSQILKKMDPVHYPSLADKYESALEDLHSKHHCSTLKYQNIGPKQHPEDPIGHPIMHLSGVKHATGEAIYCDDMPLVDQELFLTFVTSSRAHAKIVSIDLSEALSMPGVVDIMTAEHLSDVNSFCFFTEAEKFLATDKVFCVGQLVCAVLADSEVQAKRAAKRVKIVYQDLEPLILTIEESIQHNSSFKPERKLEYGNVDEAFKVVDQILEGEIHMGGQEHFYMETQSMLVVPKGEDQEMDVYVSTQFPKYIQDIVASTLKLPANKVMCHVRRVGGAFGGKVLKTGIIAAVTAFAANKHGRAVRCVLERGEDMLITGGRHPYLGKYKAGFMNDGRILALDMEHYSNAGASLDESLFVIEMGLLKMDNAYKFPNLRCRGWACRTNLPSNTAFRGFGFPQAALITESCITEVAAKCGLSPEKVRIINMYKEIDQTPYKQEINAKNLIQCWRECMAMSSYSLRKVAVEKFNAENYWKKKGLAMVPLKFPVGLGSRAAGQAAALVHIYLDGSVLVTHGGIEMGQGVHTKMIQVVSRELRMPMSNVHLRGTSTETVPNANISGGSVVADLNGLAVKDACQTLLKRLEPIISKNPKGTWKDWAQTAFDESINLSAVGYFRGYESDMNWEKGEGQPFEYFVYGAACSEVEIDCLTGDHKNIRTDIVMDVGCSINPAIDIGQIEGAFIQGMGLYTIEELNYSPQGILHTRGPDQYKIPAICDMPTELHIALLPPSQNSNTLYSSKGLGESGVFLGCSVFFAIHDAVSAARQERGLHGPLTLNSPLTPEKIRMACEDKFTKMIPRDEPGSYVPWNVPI
The following applies: cited from earlier work.

For data set [1] the following is noted: compared with idoxuridine; cited from earlier work.

Each structure is given as a SMILES string.

Turning to `O=c1[nH]c(=O)n([C@H]2C[C@H](O)[C@@H](CO)O2)cc1O` [Compound 2, 5-hydroxy-1-((2R,4S,5R)-4-hydroxy-5-(hydroxymethyl)tetrahydrofuran-2-yl)pyrimidine-2,4(1H,3H)-dione], the “effect in GPR37-translocation assay (hit rating)” value (shortened to “effect”) in the data set with GPR37-tGFP was “slight positive effect”.

As for `C#Cc1cn([C@H]2C[C@H](O)[C@@H](CO)O2)c(=O)[nH]c1=O` [Compound 4, 5-ethynyl-1-((2R,4S,5R)-4-hydroxy-5-(hydroxymethyl)-tetrahydrofuran-2-yl)pyrimidine-2,4(1H,3H)-dione], in the data set with GPR37-tGFP, the “effect” value is given as “slight positive effect”.

In the case of `Nc1cccc(-c2cn([C@H]3C[C@H](O)[C@@H](CO)O3)c(=O)[nH]c2=O)c1` [Compound 17, 5-(3-aminophenyl)-1-((2R,4S,5R)-4-hydroxy-5-(hydroxy-methyl)tetrahydrofuran-2-yl)pyrimidine-2,4(1H,3H)-dione], in the data set on GPR37-tGFP, the “effect” value is “strong hit”.

As for `CCCC(=O)Nc1ncnc2c1ncn2[C@@H]1O[C@@H]2COP(=O)(O)O[C@H]2[C@H]1OC(=O)CCC` [dibutyryl-cAMP], in the data set with GPR37-tGFP (without starvation, used as positive control), the “increase of GPR37-tGFP in the plasma membrane” value is given as “remarkable increase”.

As to `O=c1ncc(I)cn1[C@H]1C[C@H](O)[C@@H](CO)O1` [ropidoxuridine, 1-((2R,4S,5R)-4-hydroxy-5-(hydroxymethyl)tetrahydrofuran-2-yl)-5-iodopyrimidin-2(1H)-one], the “metabolic conversion to idoxuridine” value on hepatic aldehyde oxidase is “efficiently converted to idoxuridine”. Further, in data set [1], the stability in vivo result is “more stable” and the toxicity in vivo result is given as “less toxic”.
